Series [1] concerns the target T1, factor Xa (Homo sapiens, UniProt P00742). Particulars: background statement; cited from earlier work.
The conditions of series [2]: recombinantly-produced inhibitor, cited from earlier work; for bleeding time compared to other anticoagulants: animal model systems; for clotting in thromboplastin-induced, ligated jugular vein model of deep vein thrombosis: animal model.
For series [3] the following is noted: TAP at levels giving less than about two fold aPTT prolongation; heparin at doses causing a five fold increase in aPTT; cited from earlier work.
The subject of series [4] is thrombin and factor Xa. The following applies: via anti-thrombin III; cited from earlier work.
For series [5], the target named is T1, factor Xa. Nature of the series: Factor Xa assay (Test 1a), chromogenic. It is filed as biochemical. Also on record: purchased Enzyme Research Laboratories, Inc; South Bend, Ind. The following applies: in vitro factor Xa assay Test 1a; human factor Xa 0.5 nM, substrate S-2765 140 μM, 25° C.; Ki from IC50 corrected for substrate competition. In a few lines: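 Purified human factor Xa (0.5 nM) in TBS-PEG pH 7.8 was preincubated 10 min with compound, then S-2765 (140 μM) added; initial rate read at 405 nm, 25° C. IC50 from linear regression of relative rate vs log concentration; Ki by substrate-competition correction using Km.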

The conditions of series [6]: subcutaneous; cited from earlier work.

Structures can show the parent of a compound that is named as a salt. Where two headings read alike, the source gives them in different places.

T1 sequence (P00742 235-488 limits assumed): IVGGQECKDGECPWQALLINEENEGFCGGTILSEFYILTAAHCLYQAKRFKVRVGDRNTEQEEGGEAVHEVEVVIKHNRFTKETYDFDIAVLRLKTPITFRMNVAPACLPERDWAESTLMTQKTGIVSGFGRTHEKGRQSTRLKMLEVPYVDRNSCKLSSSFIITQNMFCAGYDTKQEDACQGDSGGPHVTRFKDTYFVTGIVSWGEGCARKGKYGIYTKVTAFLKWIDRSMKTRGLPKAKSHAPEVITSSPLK
T1 sequence (P00742 41-179 limits assumed): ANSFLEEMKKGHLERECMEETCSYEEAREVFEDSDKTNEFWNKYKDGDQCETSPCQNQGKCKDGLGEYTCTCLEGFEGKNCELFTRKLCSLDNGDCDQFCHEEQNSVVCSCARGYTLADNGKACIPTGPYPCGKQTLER

Turning to “tick anticoagulant peptide (YNRLCIKPRDWIDECDSNEGGERAYFRNGKGGCDSFWICPEDHTGADYYSSYRDCFNACI; UniProt P17726 1-60, looked up) [TAP, reference compound]”, the Ki – broadly, the dissociation constant of the complex between target and ligand, obtained from inhibition or displacement – in series [1] was about 0.5 nM. In addition, in series [2], the “bleeding time compared to other anticoagulants” value is recorded as “decrease bleeding time” and the “clotting in thromboplastin-induced, ligated jugular vein model of deep vein thrombosis” value is “prevent clotting”. Also, in series [3], the “"high-shear" arterial thrombosis and "reduced flow" caused by polyester (DACRON) graft” value is recorded as “effectively prevents”.

heparin: the “thrombin inactivated faster than factor Xa” value in series [4] is “approximately 100 times”. In addition, the “"high-shear" arterial thrombosis and "reduced flow" caused by polyester (DACRON) graft” value in series [3] was “did not prevent thrombosis”.

As to `CC(Cc1ccc(C(=N)N)cc1)(C(=O)N[C@@H](CC1CCCCC1)C(=O)N[C@@H](CCCNC(=N)N)C(N)=O)c1ccccc1` (mixture of isomers) [Example 100, 2-(S)-{2-(S)-[3-(4-Carbamimidoyl-phenyl)-2-(R,S)-methyl-2-phenyl-propionylamino]-3-cyclohexyl-propionylamino}-5-guanidino-pentanoic acid amide trifluoroacetic acid salt], affinity in series [5] was put at a Ki of 440 nM.

`N=C(N)NCCC[C@H](NC(=O)[C@@H](NC(=O)C(Cc1ccc(C(=N)N)cc1)c1ccccc1)C1CCCCC1)C(N)=O` (mixture of isomers) [Example 135, 2-(S)-{2-(S)-[3-(4-Carbamimidoyl-phenyl)-2-(R,S)-phenyl-propionylamino]-2-cyclohexyl-acetylamino}-5-guanidino-pentanoic acid amide hydrochloric acid salt] registered a Ki in series [5] of 13 nM.

Molecule `CC(Cc1ccc(C(=N)N)cc1)(C(=O)N[C@@H](COCc1ccccc1)C(=O)N[C@@H](CCCNC(=N)N)C(N)=O)c1ccccc1` (mixture of isomers) [Example 70, 2-(S)-{3-Benzyloxy-2-(S)-[3-(4-carbamimidoyl-phenyl)-2-(R,S)-methyl-2-phenyl-propionylamino]-propionylamino}-5-guanidino-pentanoic acid amide trifluoroacetic acid salt] yielded a Ki in series [5] of 30 nM.

In the case of `N=C(N)NCCC[C@H](NC(=O)[C@H](CCC(=O)O)NC(=O)C(Cc1ccc(C(=N)N)cc1)c1ccc2ccccc2c1)C(=O)N[C@@H](CC1CCCCC1)C(N)=O` (mixture of isomers) [Example 82, 4-(S)-[3-(4-Carbamimidoyl-phenyl)-2-(R,S)-naphthalen-2-yl-propionylamino]-4-[1-(S)-(1-(S)-carbamoyl-2-cyclohexyl-ethylcarbamoyl)-4-guanidino-butylcarbamoyl]-butyric acid trifluoroacetic acid salt], the Ki in series [5] was determined as 2840 nM.

`Cc1ccc(C(Cc2ccc(C(=N)N)cc2)C(=O)NC(C(=O)NCC2CCN(C(=N)N)CC2)C2CCCCC2)cc1` (single isomer, unassigned; less polar) [Example 172] yielded an inhibition constant (Ki) in series [5] of 72 nM.

In turn, `N=C(N)NCCC[C@H](NC(=O)[C@@H](NC(=O)C(Cc1ccc(C(=N)N)cc1)C1CCCCC1)C1CCCCC1)C(=O)NCCc1ccccc1` (mixture of isomers) [Example 184, 2-(S)-{2-(R,S)-[3-(4-Carbamimidoyl-phenyl)-2-cyclohexyl-propionylamino]-2-(S)-cyclohexyl-acetylamino}-5-guanidino-pentanoic acid phenethyl-amide trifluoroacetic acid salt] registered a Ki in series [5] of 19 nM.

The molecule `N=C(N)c1ccc(CNC(=O)C(NC(=O)C(Cc2ccc(C(=N)N)cc2)C2CCCCC2)C2CCCCC2)cc1` (single isomer, unassigned; less polar) [Example 111] gave a Ki in series [5] of 59 nM.

`N=C(N)NCCC[C@H](NC(=O)C(NC(=O)C(Cc1ccc(C(=N)N)cc1)C1CCCCC1)C1CCCCC1)C(=O)NCc1cccs1` (stereo partly drawn) [Example 192, 2-(S)-{2-[3-(4-Carbamimidoyl-phenyl)-2-cyclohexyl-propionylamino]-2-cyclohexyl-acetylamino}-5-guanidino-pentanoic acid (thiophen-2-ylmethyl)-amide trifluoroacetic acid salt]: the affinity in series [5] corresponds to a Ki of 44 nM.

In turn, `N=C(N)c1ccc(CC(C(=O)N[C@H](C(=O)NCC2CCC(C(=N)N)CC2)C2CCCCC2)c2cccc(Br)c2)cc1` (single isomer, unassigned; less polar) [Example 219] registered a Ki in series [5] of 5 nM.

In series [5], `N=C(N)c1ccc(CC(C(=O)NC(C(=O)NCC2CCN(C(=N)N)CC2)C2CCCCC2)c2cccc(Br)c2)cc1` (single isomer, unassigned; less polar) [Example 165] returned an inhibition constant (Ki) of 2 nM.

In series [5], `Cc1cccc(C(Cc2ccc(C(=N)N)cc2)C(=O)NC(C(=O)NCC2CCN(C(=N)N)CC2)C2CCCCC2)c1` (single isomer, unassigned; less polar) [Example 159] displayed a Ki of 11 nM.

B1: antistasin (protein, UniProt P15358 18-136, looked up)
Antistasin: QGPFGPGCEEAGCPEGSACNIITDRCTCSGVRCRMHCPHGFQRSRYGCEFCKCRLEPMKATCDISECPEGMMCSRLTNKCDCKIDINCRKTCPNGLKRDKLGCEYCECRPKRKLIPRLS
Turning to B1, the Ki in series [1] was 0.05 nM. For the same molecule, in series [2], the “bleeding time compared to other anticoagulants” value is recorded as “decrease bleeding time” and the “clotting in thromboplastin-induced, ligated jugular vein model of deep vein thrombosis” value is listed as “prevent clotting”. Also, in series [6], the “treatment in thromboplastin-induced model of disseminated intravascular coagulation” value was “effective treatment”.

Source of the values: patent US6759420B1, “Arylalkanoyl derivatives, processes for their preparation, their use and pharmaceutical compositions containing them” (Aventis Pharma Deutschland GmbH, priority 1999, dated 2004).
